The values that follow come from patent EP1054892B1, “AZOLE PEPTIDOMIMETICS AS THROMBIN RECEPTOR ANTAGONISTS” (Ortho-McNeil Pharmaceutical, Inc., priority 1998, dated 1999).

For assay [1], the system named is gel-filtered platelets. The assay is described as follows: In vitro inhibition of SFLLRN-NH2 (TRAP)-stimulated gel-filtered platelet aggregation. As to conditions: agonist SFLLRN-NH2 (TRAP), gel-filtered human platelets. Type of assay: cell-based.
In assay [2] the test system is gel-filtered platelets. The assay is described as follows: In vitro inhibition of thrombin-induced gel-filtered platelet aggregation. Type of assay: cell-based. As to conditions: agonist thrombin, gel-filtered human platelets, read-out: Platelet Aggregation** IC50 Thr*. The method, then: IN VITRO INHIBITION OF THROMBIN-INDUCED GEL-FILTERED PLATELET AGGREGATION ASSAY.
The percentage of platelet aggregation is calculated as an increase in light transmission of compound-treated platelet concentrate vs. control-treated platelet concentrate. Human blood is obtained from drug free, normal donors in tubes containing 0.13 M sodium citrate. Platelet rich plasma (PRP) is collected by centrifugation of whole blood at 200 x g for 10 min at 25°C. The PRP (5 mL) is gel filtered through Sepharose 2B (bed volume 50 mL), and the platelet count is adjusted to 2x10^7 platelets per sample. The following constituents are added to a siliconized cuvette: concentrated platelet filtrate and Tyrode's buffer (0.14 M NaCI, 0.0027 M KCI, 0.012 M NaHCO3, 0.76 mM Na2HPO4, 0.0055 M glucose, 2 mg/mL BSA and 5.0 mM HEPES @ pH 7.4) in an amount equal to 350 µl, 50 µl of 20 mM calcium and 50 µl of the test compound. Aggregation is monitored in a BIODATA aggregometer for the 3 min following the addition of agonist (thrombin 50 µl of 1 unit/mL).
The table contains IC50 values (µM) of the compounds in a thrombin receptor binding assay, and IC50 values (µM) against platelet aggregation stimulated by two agonists, thrombin or SFLLRN-NH2 (TRAP).
* µM ** Thrombin-induced aggregation of gel-filtered platelets in µM.

In the next assay the target is T1, thrombin receptor (Homo sapiens, UniProt P25116).
T1 construct: CHRF membranes (Jones, Biochim. Biophys. Acta 1992, 1136, 272) are thawed from -70°C; endogenous in cells; host or cells: CHRF cell membranes
T1 sequence (P25116 22-425): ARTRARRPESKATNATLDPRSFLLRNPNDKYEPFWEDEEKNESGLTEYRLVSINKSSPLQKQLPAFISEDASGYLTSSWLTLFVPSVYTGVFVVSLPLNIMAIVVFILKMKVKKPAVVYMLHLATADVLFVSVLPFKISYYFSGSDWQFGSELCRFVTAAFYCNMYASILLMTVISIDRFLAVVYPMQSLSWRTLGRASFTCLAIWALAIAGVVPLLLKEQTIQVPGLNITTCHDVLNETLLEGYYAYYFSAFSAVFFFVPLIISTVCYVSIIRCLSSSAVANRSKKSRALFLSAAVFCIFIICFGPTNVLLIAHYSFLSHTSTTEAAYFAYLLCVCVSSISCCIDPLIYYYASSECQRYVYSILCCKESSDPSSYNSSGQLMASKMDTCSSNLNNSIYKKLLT
The assay is described as follows: In vitro thrombin receptor binding assay (CHRF membranes, tritiated 721-40). As to conditions: displacement of tritiated 721-40 (Ser-pFPhe-Har-Leu-Har-Lys-Tyr-NH2), read-out: Thr Receptor Binding IC50*. The method, then:
IN VITRO THROMBIN RECEPTOR BINDING ASSAY.
CHRF membranes (Jones, Biochim. Biophys. Acta 1992, 1136, 272) are thawed from -70°C, centrifuged at maximum speed for 5 min, washed twice with binding buffer (50 mM HEPES containing 5 mM MgCl2 and 0.1% BSA), and re-suspended in binding buffer ([…]). 100 µl of membranes are added to the 24-Wallac plates and delivered to the Tomtech apparatus. In a typical experiment, 6 µl of samples (from a 125 µg/mL intermediary plate, 20%DMSO) and 44 µl buffer are delivered to the plates (final conc. of compounds is 3.7 µg/mL, 0.6% DMSO). Similarly, 6 µl 20%DMSO and 44 µl buffer are delivered to both column 1 (NSB) and column 12 (TB). 10 µl Ser-pFPhe-Har-Leu-Har-Lys-Tyr-NH2 (721-40; 500 µM in deionized water) is added to column 1.50 µl tritiated 721-40 (specific activity 46 Ci/mmol) is added to all the wells. The plates are mixed well for 20 seconds, incubated for 30 min, and then harvested with 10 mM HEPES/138 mM NaCl using the Skatron harvester. The filters (GF/C Brandel FPXLR 296) are presoaked 3 h in 0.5% polyethylenimine in HEPES/0.1 M N-acetylglucosamine) are set in saran wrap and dried for 3 min in the microwave, and placed in sample bags (Wallac 1450-432). 4.5 mL scintillation fluid (Wallac, Betaplate Scint 1205-440) is added. The bags are sealed, placed in filter cassettes (Wallac 1450-104), and analyzed on the microbeta counter. […]

Numbered stars: 1 amine (or outer) side, 2 acyl side, 3 side chain; on linkers, the order of the positions; unused ones are H or OH. Square brackets hold non-standard residues; d marks the D form. Peptide text beside a SMILES is read from it. Phe(4-F)ψ(2,4-Thz) = O=C(c1csc([C@H](Cc2ccc(F)cc2)N[*:1])n1)[*:2]; hArg = N=C(N)NCCCC[C@H](N)C(=O)O; Cha = N[C@@H](CC1CCCCC1)C(=O)O; Sar = CNCC(=O)O

With `CNCC(=O)N[C@@H](Cc1ccc(F)cc1)c1nc(C(=O)N[C@@H](CC2CCCCC2)C(=O)N[C@@H](CCCNC(=N)N)C(=O)NCc2ccccc2)co1` [Compound 1, 2-[1(S)-Sarcosineamido-2-(4-fluorophenyl)ethyl]oxazole-4-carboxy-cyclohexylalanyl-arginine benzylamide], the IC50 in the assay with gel-filtered platelets [1] (Platelet) worked out at 10 µM; in the assay with gel-filtered platelets [2] (Platelet) it was 25 µM.
As to `N=C(N)NCCC[C@H](NC(=O)[C@H](CC1CCCCC1)NC(=O)c1coc([C@H](Cc2ccc(F)cc2)NC(=O)CCN)n1)C(=O)NCc1ccccc1` [Compound 2, 2-[1(S)-β-Alanineamido-2-(4-fluorophenyl)ethyl]oxazole-4-carboxycyclohexylalanyl-arginine benzylamide], the IC50 with gel-filtered platelets [1] (Platelet) is 7 µM; in the assay on gel-filtered platelets [2] (Platelet) it was 10 µM.
Regarding `CNCC(=O)N[C@@H](Cc1ccc(F)cc1)c1nc(C(=O)N[C@@H](CC2CCCCC2)C(=O)N[C@@H](CCCNC(=N)N)C(=O)NCCc2ccccc2)cs1` [Compound 3, 2-[1(S)-Sarcosineamido-2-(4-fluorophenyl)ethyl]thiazole-4-carboxycyclohexylalanyl-arginine phenethylamide], the IC50 in the assay on gel-filtered platelets [1] (Platelet) was 0.6 µM; with gel-filtered platelets [2] (Platelet) it was 12 µM.
Turning to `CNCC(=O)N[C@@H](Cc1ccc(F)cc1)c1nc(C(=O)N[C@@H](CC2CCCCC2)C(=O)N[C@@H](CCCCNC(=N)N)C(=O)N[C@@H](Cc2ccccc2)C(N)=O)cs1` [Compound 4] (H-[Sar][Phe(4-F)ψ(2,4-Thz)][Cha][hArg]F-NH2), the figures for the IC50 on thrombin receptor and in the assay on gel-filtered platelets [2] (Platelet) were 5 µM and 45 µM, respectively.
For `CC[C@H](C)[C@H](N)C(=O)N[C@@H](Cc1ccc(F)cc1)c1nc(C(=O)N[C@@H](CC2CCCCC2)C(=O)N[C@@H](CCCNC(=N)N)C(=O)N[C@@H](Cc2ccccc2)C(N)=O)cs1` [Compound 5] (H-I[Phe(4-F)ψ(2,4-Thz)][Cha]RF-NH2), the 50% inhibitory concentration (IC50) in the assay with gel-filtered platelets [1] (Platelet) is 9 µM; in the assay on gel-filtered platelets [2] (Platelet), 43 µM.
The corresponding values for `CNCC(=O)N[C@@H](Cc1ccc(F)cc1)c1nc(C(=O)N[C@@H](CCCCN)C(=O)N[C@@H](CCCNC(=N)N)C(=O)NCCc2ccccc2)cs1` [Compound 6, 2-[1(S)-Sarcosineamido-2-(4-fluorophenyl)ethyl]thiazole-4-carboxy-lysyl-arginine phenethylamide] are 4 µM and 26 µM.
The corresponding values for `CNCC(=O)N[C@@H](Cc1ccc(F)cc1)c1nc(C(=O)N[C@@H](CC2CCCCC2)C(=O)N[C@@H](CCCNC(=N)N)C(=O)NCc2ccccc2)c(C)o1` [Compound 7, 2-[1(S)-Sarcosineamido-2-(4-fluorophenyl)ethyl]-5-methyloxazole-4-carboxy-cyclohexylalanyl-arginine benzylamide] are 22 µM and 19 µM.
As for `Cc1oc(C(Cc2ccc(F)cc2)NC(=O)C(N)Cc2cn(Cc3ccccc3)cn2)nc1C(=O)NC(CC1CCCCC1)C(=O)NC(CCCNC(=N)N)C(=O)NCc1ccccc1` [Compound 8, 2-[1(S)-N(tau)-Benzyl-histidineamido-2-(4-fluorophenyl)ethyl]-5-methyloxazole-4-carboxy-cyclohexylalanyl-arginine benzylamide], the figures for the IC50 with gel-filtered platelets [1] (Platelet) and with gel-filtered platelets [2] (Platelet) were 5 µM and 13 µM, respectively.
Consider `CC(=O)N[C@@H](Cc1ccc(F)cc1)c1nc(C(=O)N[C@@H](CC2CCCCC2)C(=O)N[C@@H](CCCNC(=N)N)C(=O)NCc2ccccc2)c(C)o1` [Compound 9, 2-[1(S)-Acetamido-2-(4-fluorophenyl)ethyl]-5-methyloxazole-4-carboxy-cyclohexylalanyl-arginine benzylamide], for which the results for the half-inhibitory concentration (IC50) in the assay with gel-filtered platelets [1] (Platelet) and in the assay with gel-filtered platelets [2] (Platelet) were 11 µM and 24 µM, respectively.
Regarding `Cc1oc([C@H](Cc2ccc(F)cc2)N(C)C)nc1C(=O)N[C@@H](CC1CCCCC1)C(=O)N[C@@H](CCCNC(=N)N)C(=O)NCc1ccccc1` [Compound 10, 2-[1(S)-N,N-Dimethyl-2-(4-fluorophenyl)ethyl]-5-methyloxazole-4-carboxy-cyclohexylalanyl-arginine benzylamide], the IC50 in the assay on gel-filtered platelets [1] was 17 µM; in the assay with gel-filtered platelets [2], 11 µM.
